Data as given in patent US9981983B2, “Thienopyranones as kinase inhibitors” (SignalRx Pharmaceuticals, Inc., priority 2008, dated 2018).
pIC50: −log10 of the molar value.

Test system: H1299 (Lung)
Assay: Cell proliferation MTS assay, H1299
Type: cell-based
Conditions: Homo sapiens, NCI-H1299, 72 hours
Method: All cell lines were obtained from ATCC and cultured and plated according to ATCC recommendations. Cells were cultured in complete culture media containing 10% heat-inactivated fetal bovine serum (FBS, Mediatech, Inc.). For adherent cell lines, once cells reached 70% confluency, they were trypsinized and resuspended in phenol red free RPMI media (Mediatech, Inc.) plus 10% heat-inactivated FBS (assay buffer) and 100 μL aliquots were plated into each well of 96-well microtiter plates at a final density of 1,000-2,000 cells/well. Cells were incubated overnight at 37° C. in 5% CO2, and treated with test compounds on the next day. For suspension cell lines, cells were resuspended in assay buffer, plated into 96-well microtiter plates at a density of 10^4-10^5 cells/well/100 μL, and treatment was started on the same day. Cells were treated with vehicle (DMSO) and test compounds for 72 hours at concentration of 100, 70, 40, 20, 10, 5, 2.5, 1.25, 0.5 and 0.2 μM in four replicates at 37° C. in 5% CO2.

pIC50: 5.61
Compound: O=c1cc(N2CCOCC2)oc2c(-c3ccc4c(c3)OCCO4)csc12 [Compound 28, 3-(2,3-dihydrobenzo[b][1,4]dioxin-6-yl)-5-morpholino-7H-thieno[3,2-b]pyran-7-one]
